Data from ChEMBL document CHEMBL1821686, “Structure-based optimization of potent 4- and 6-azaindole-3-carboxamides as renin inhibitors” (Bioorg Med Chem Lett, 2011).

Legend:
Renin [1] = molecular target: T1, Renin (Homo sapiens, UniProt P00797)
T1 sequence (P00797 whole entry): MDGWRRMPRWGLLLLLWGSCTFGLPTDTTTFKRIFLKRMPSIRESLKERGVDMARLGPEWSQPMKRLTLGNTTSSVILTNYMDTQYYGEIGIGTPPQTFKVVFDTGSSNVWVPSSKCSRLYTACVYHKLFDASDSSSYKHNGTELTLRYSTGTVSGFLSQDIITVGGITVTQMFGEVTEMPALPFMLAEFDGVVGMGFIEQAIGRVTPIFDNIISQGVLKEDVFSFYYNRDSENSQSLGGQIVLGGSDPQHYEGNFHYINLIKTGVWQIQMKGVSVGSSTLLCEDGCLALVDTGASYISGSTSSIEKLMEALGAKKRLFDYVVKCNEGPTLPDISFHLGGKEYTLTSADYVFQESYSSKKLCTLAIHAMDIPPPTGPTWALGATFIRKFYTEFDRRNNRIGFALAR

Renin [2] = molecular target: T1, Renin; test: Inhibition of human recombinant renin using dabcyl-gamma-Abu-Ile-His-Pro-Phe-His-Leu-Val-Ile-His-Thr-EDANS as substrate preincubated for 30 mins after measured after 30 mins by fluorescence assay in presence of human plasma
[3] = Apparent permeability from apical to basolateral side of human Caco2 cells at 20 uM after 2 hrs; conditions: Caco-2
Renin [4] = molecular target: T1, Renin; test: Inhibition of human recombinant renin using dabcyl-gamma-Abu-Ile-His-Pro-Phe-His-Leu-Val-Ile-His-Thr-EDANS as substrate preincubated for 30 mins after measured after 30 mins by fluorescence assay in presence of C57BL/6 mouse plasma

Cc1ccc(C)c(Oc2c(C(=O)N3CCNCC3)c3ncccc3n2-c2ccccc2)c1
IC50 (Renin [1]): 692 nM

O=C(c1c(Oc2ccccc2F)n(-c2ccccc2)c2cccnc12)N1CCNCC1
IC50 (Renin [1]): 513 nM

O=C(c1c(Oc2cccc(F)c2F)n(-c2ccccc2)c2cccnc12)N1CCNCC1
IC50 (Renin [1]): 310 nM

O=C(c1c(Oc2cc(F)ccc2F)n(-c2ccccc2)c2cccnc12)N1CCNCC1
IC50 (Renin [1]): 202 nM

Cc1cccc(F)c1Oc1c(C(=O)N2CCNCC2)c2ncccc2n1-c1ccccc1
IC50 (Renin [1]): 74 nM

Cc1c(F)cccc1Oc1c(C(=O)N2CCNCC2)c2ncccc2n1-c1ccccc1
IC50 (Renin [1]): 57 nM

Cc1ccc(F)cc1Oc1c(C(=O)N2CCNCC2)c2ncccc2n1-c1ccccc1
IC50 (Renin [1]): 24 nM

O=C(c1c(Oc2cc(F)ccc2Cl)n(-c2ccccc2)c2cccnc12)N1CCNCC1
IC50 (Renin [1]): 55 nM

Cc1cc(F)c(F)cc1Oc1c(C(=O)N2CCNCC2)c2ncccc2n1-c1ccccc1
IC50 (Renin [1]): 322 nM

Cc1c(F)cc(F)cc1Oc1c(C(=O)N2CCNCC2)c2ncccc2n1-c1ccccc1
IC50 (Renin [1]): 107 nM

Cc1cccc(C)c1Oc1c(C(=O)N2CCNCC2)c2ncccc2n1-c1ccccc1
IC50 (Renin [2]): 30 nM | Papp A→B at 2 h, 20 µM [3]: 0.28 ×10⁻⁶ cm/s | IC50 (Renin [4]): 15 nM | IC50 (Renin [1]): 14 nM

Cc1ccc(F)c(C)c1Oc1c(C(=O)N2CCNCC2)c2ncccc2n1-c1ccccc1
Papp A→B at 2 h, 20 µM [3]: 4.3 ×10⁻⁶ cm/s | IC50 (Renin [4]): 36 nM | IC50 (Renin [1]): 1.3 nM

Cc1cccc(C)c1Sc1c(C(=O)N2CCNCC2)c2ncccc2n1-c1ccccc1
IC50 (Renin [1]): 61 nM

O=C(c1c(Cc2ccccc2)n(-c2ccccc2)c2cccnc12)N1CCNCC1
IC50 (Renin [1]): 939 nM

O=C(c1c(Cc2cccc(F)c2F)n(-c2ccccc2)c2cccnc12)N1CCNCC1
IC50 (Renin [1]): 1460 nM

Cc1cc(F)cc(C)c1Cc1c(C(=O)N2CCNCC2)c2ncccc2n1-c1ccccc1
IC50 (Renin [1]): 246 nM

Cc1c(F)cccc1Cc1c(C(=O)N2CCNCC2)c2ncccc2n1-c1ccccc1
IC50 (Renin [1]): 12 nM

Cc1cccc(C)c1Oc1c(C(=O)N2CCNCC2)c2ncccc2n1C1CCCCC1
IC50 (Renin [1]): 4 nM

Cc1cccc(C)c1Oc1c(C(=O)N2CCN[C@@H](C)C2)c2ncccc2n1C1CCCCC1
IC50 (Renin [1]): 80 nM

Cc1cccc(C)c1Oc1c(C(=O)N2CCN[C@@H](C)C2)c2ncccc2n1-c1ccccc1
IC50 (Renin [1]): 60 nM

Cc1cccc(C)c1Oc1c(C(=O)N2CCN[C@@H](CO)C2)c2ncccc2n1C1CCCCC1
IC50 (Renin [1]): 390 nM

Cc1cccc(C)c1Oc1c(C(=O)N2CCN[C@@H](CO)C2)c2ncccc2n1-c1ccccc1
IC50 (Renin [1]): 143 nM

COC[C@H]1CN(C(=O)c2c(Oc3c(C)cccc3C)n(C3CCCCC3)c3cccnc23)CCN1
IC50 (Renin [1]): 694 nM

CC[C@H]1CN(C(=O)c2c(Oc3c(C)cccc3C)n(-c3ccccc3)c3cccnc23)CCN1
IC50 (Renin [1]): 455 nM

CCC[C@H]1CN(C(=O)c2c(Oc3c(C)cccc3C)n(-c3ccccc3)c3cccnc23)CCN1
IC50 (Renin [1]): 1180 nM

Cc1cccc(C)c1Oc1c(C(=O)N2CCN[C@@H](C(C)C)C2)c2ncccc2n1-c1ccccc1
IC50 (Renin [1]): 2710 nM

Cc1cccc(C)c1Oc1c(C(=O)N2CCNC[C@@H]2Cc2ccccc2)c2ncccc2n1-c1ccccc1
IC50 (Renin [1]): 152 nM

COc1ccc2c(n1)c(C(=O)N1CCNCC1)c(Oc1cc(F)ccc1C)n2-c1ccccc1
IC50 (Renin [1]): 6630 nM

Cc1ccc(F)cc1Oc1c(C(=O)N2CCNCC2)c2nc(O)ccc2n1-c1ccccc1
IC50 (Renin [1]): > 5000 nM

Cc1cnc2c(C(=O)N3CCNCC3)c(Oc3cc(F)ccc3C)n(-c3ccccc3)c2c1
IC50 (Renin [1]): 14 nM

Cc1cccc(C)c1Oc1c(C(=O)N2CCNCC2)c2ncc(O)cc2n1-c1ccccc1
IC50 (Renin [1]): 3 nM

CCOc1cnc2c(C(=O)N3CCNCC3)c(Oc3c(C)cccc3C)n(-c3ccccc3)c2c1
IC50 (Renin [1]): 80 nM

Cc1cnc2c(C(=O)N3CCNCC3)c(Cc3cccc(F)c3C)n(-c3ccccc3)c2c1
IC50 (Renin [1]): 9 nM

COc1ccc2c(n1)c(C(=O)N1CCNCC1)c(Cc1cccc(F)c1C)n2-c1ccccc1
IC50 (Renin [1]): 590 nM

Cc1c(F)cccc1Cc1c(C(=O)N2CCNCC2)c2nc(O)ccc2n1-c1ccccc1
IC50 (Renin [1]): 1600 nM

Cc1ccccc1Oc1c(C(=O)N2CCNCC2)c2ccncc2n1-c1ccccc1
IC50 (Renin [1]): 494 nM

Cc1ccc(F)cc1Oc1c(C(=O)N2CCNCC2)c2ccncc2n1-c1ccccc1
IC50 (Renin [1]): 27 nM

Cc1cccc(C)c1Oc1c(C(=O)N2CCNCC2)c2ccncc2n1-c1ccccc1
IC50 (Renin [1]): 112 nM

Cc1ccc(F)c(C)c1Oc1c(C(=O)N2CCNCC2)c2ccncc2n1-c1ccccc1
IC50 (Renin [1]): 2 nM

O=C(c1c(Cc2ccccc2)n(-c2ccccc2)c2cnccc12)N1CCNCC1
IC50 (Renin [1]): 761 nM

Cc1c(F)cccc1Cc1c(C(=O)N2CCNCC2)c2ccncc2n1-c1ccccc1
IC50 (Renin [2]): 25 nM | Papp A→B at 2 h, 20 µM [3]: 1.27 ×10⁻⁶ cm/s | IC50 (Renin [4]): 26 nM | IC50 (Renin [1]): 14 nM

CCc1nccc2c(C(=O)N3CCNCC3)c(Oc3cc(F)ccc3C)n(-c3ccccc3)c12
IC50 (Renin [1]): 423 nM

Cc1ccc(F)cc1Oc1c(C(=O)N2CCNCC2)c2ccnc(Cc3ccccc3)c2n1-c1ccccc1
IC50 (Renin [2]): 226 nM | Papp A→B at 2 h, 20 µM [3]: 3.9 ×10⁻⁶ cm/s | IC50 (Renin [4]): 192 nM

Cc1cccc(C)c1Oc1c(C(=O)N2CCNCC2)c2ccnc(Cl)c2n1-c1ccccc1
IC50 (Renin [1]): 517 nM

Cc1c(F)cccc1Cc1nccc2c(C(=O)N3CCNCC3)c(Cc3cccc(F)c3C)n(-c3ccccc3)c12
IC50 (Renin [1]): 5 nM

CCCCC1CN(C(=O)c2c(Oc3c(C)cccc3C)n(-c3ccccc3)c3cccnc23)CCN1 (racemic)
IC50 (Renin [1]): 285 nM
